# Source: patent publication US20260226068A1, “IMIDAZOTRIAZINE IL-17A MODULATORS AND USES THEREOF” (DICE ALPHA, INC., priority 2023, published 2026)
# Columns and labels:
# [1] = target: T1, IL-17A/F (Homo sapiens, UniProt Q16552+Q96PD4); assay: IL-17A/F HEK-Blue cell assay (SEAP reporter); type: cell-based; conditions: HEK-Blue IL-17A reporter cells, IL17A/F 5 ng/mL, 20 hours, SEAP read at A630; read-out: HEK-Blue IL17AF (IC50 for IL-17A/F inhibition)
# T1 construct: purchased R&D Systems
# T1 sequence (Q16552 24-155): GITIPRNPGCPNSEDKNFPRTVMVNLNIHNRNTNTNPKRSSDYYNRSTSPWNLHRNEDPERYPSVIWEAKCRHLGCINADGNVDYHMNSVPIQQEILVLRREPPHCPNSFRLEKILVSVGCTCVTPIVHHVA
# T1 sequence (Q96PD4 31-163): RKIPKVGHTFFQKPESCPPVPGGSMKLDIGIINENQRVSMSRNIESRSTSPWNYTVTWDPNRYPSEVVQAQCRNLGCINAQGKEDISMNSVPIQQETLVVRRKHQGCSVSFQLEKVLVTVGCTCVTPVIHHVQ
# [2] = target: T2, IL-17A/A (Homo sapiens, UniProt Q16552); assay: IL-17A/A HEK-Blue cell assay (SEAP reporter); type: cell-based; conditions: HEK-Blue IL-17A reporter cells, IL17A/A 5 ng/mL, 20 hours, SEAP read at A630; read-out: HEK-Blue IL17AA (IC50 for IL-17A/A inhibition)
# T2 construct: purchased Genscript Z03228
# T2 sequence (Q16552 24-155): T1 sequence (Q16552 24-155)
SMILES,IC50 [1],IC50 [2]
CCc1nonc1C(=O)N[C@H](c1cn2nc(C[C@H]3C[C@H](C)CNC3=O)c(C3CCOCC3)nc2n1)C1CCC(F)(F)CC1 [Compound 395],> 1000 nM,< 100 nM
CCc1nonc1C(=O)N[C@H](c1cn2nc(C[C@@H]3C[C@H](C)CNC3=O)c(C3CCOCC3)nc2n1)C1CCC(F)(F)CC1 [Compound 396],> 1000 nM,< 100 nM
Cc1nonc1C(=O)N[C@H](c1cn2nc(C[C@@H]3C[C@@H](C)CNC3=O)c(C3CCOCC3)nc2n1)C1CCC(F)(F)CC1 [Compound 397],> 1000 nM,< 100 nM
Cc1nonc1C(=O)N[C@H](c1cn2nc(C[C@H]3C[C@H](C)CNC3=O)c(C3CCOCC3)nc2n1)C1CCC(F)(F)CC1 [Compound 398],> 1000 nM,100 to 1000 nM
Cc1nonc1C(=O)N[C@H](c1cn2nc(C[C@@H]3C[C@H](C)CNC3=O)c(C3CCOCC3)nc2n1)C1CCC(F)(F)CC1 [Compound 399],> 1000 nM,< 100 nM
Cn1nccc1C(=O)N[C@H](c1cn2nc(C[C@H]3C[C@@H](C(F)(F)F)CNC3=O)c(C3CCOCC3)nc2n1)C1CCCCC1 [Compound 405],100 to 1000 nM,< 100 nM
"CCn1nccc1C(=O)N[C@H](c1cn2nc(C[C@H]3C[C@@H](C(F)(F)F)CNC3=O)c(CN3CCOCC3)nc2n1)C(C1CC1)C1CC1 [Compound 406, N—((S)-2,2-dicyclopropyl-1-(3-(morpholinomethyl)-2-(((3R,5R)-2-oxo-5-(trifluoromethyl)piperidin-3-yl)methyl)imidazo[1,2-b][1,2,4]triazin-6-yl)ethyl)-1-ethyl-1H-pyrazole-5-carboxamide]",100 to 1000 nM,< 100 nM
Cc1nonc1C(=O)N[C@H](c1cn2nc(C[C@H]3C[C@@H](C(F)(F)F)CNC3=O)c(CN3CCOCC3)nc2n1)C1CCC(F)(F)CC1 [Compound 407],> 1000 nM,100 to 1000 nM
"CCn1nccc1C(=O)N[C@H](c1cn2nc(C[C@H]3C[C@@H](C(F)(F)F)CNC3=O)c(CN3CCOCC3C)nc2n1)[C@H]1CC[C@H](C)CC1 (stereo partly drawn) [Compound 408, 1-ethyl-N-((1S)-((1r,4S)-4-methylcyclohexyl)(3-((3-methylmorpholino)methyl)-2-(((3R,5R)-2-oxo-5-(trifluoromethyl)piperidin-3-yl)methyl)imidazo[1,2-b][1,2,4]triazin-6-yl)methyl)-1H-pyrazole-5-carboxamide]",< 100 nM,< 100 nM
CCn1ncnc1C(=O)N[C@H](c1cn2nc(C[C@H]3C[C@@H](C(F)(F)F)CNC3=O)c(C3CCOCC3)nc2n1)C1CCCCC1 [Compound 409],> 1000 nM,< 100 nM
CCn1ncnc1C(=O)N[C@H](c1cn2nc(C[C@H]3C[C@@H](C(F)(F)F)CNC3=O)c(C3CCOCC3)nc2n1)C1CCCCCC1 [Compound 410],100 to 1000 nM,< 100 nM
"Cc1nonc1C(=O)N[C@H](c1cn2nc(C[C@H]3C[C@@H](C(F)(F)F)CNC3=O)c(N3CCN(C)C4(CC4)C3)nc2n1)C1CCC(F)(F)CC1 [Compound 411, N—((S)-(4,4-difluorocyclohexyl)(3-(4-methyl-4,7-diazaspiro[2.5]octan-7-yl)-2-(((3R,5R)-2-oxo-5-(trifluoromethyl)piperidin-3-yl)methyl)imidazo[1,2-b][1,2,4]triazin-6-yl)methyl)-4-methyl-1,2,5-oxadiazole-3-carboxamide]",> 1000 nM,< 100 nM
"CCc1nonc1C(=O)N[C@H](c1cn2nc(C[C@H]3C[C@@H](C(F)(F)F)CNC3=O)c(N3CCN(CCOC)CC3)nc2n1)C1CCC(F)(F)CC1 [Compound 421, N—((S)-(4,4-difluorocyclohexyl)(3-(4-(2-methoxyethyl)piperazin-1-yl)-2-(((3R,5R)-2-oxo-5-(trifluoromethyl)piperidin-3-yl)methyl)imidazo[1,2-b][1,2,4]triazin-6-yl)methyl)-4-ethyl-1,2,5-oxadiazole-3-carboxamide]",> 1000 nM,< 100 nM
"CCn1ncnc1C(=O)N[C@H](c1cn2nc(C[C@H]3C[C@@H](C(F)(F)F)CNC3=O)c(C3CCOCC3)nc2n1)[C@H]1CCCC(F)(F)C1 [Compound 422, N—((S)—((S)-3,3-difluorocyclohexyl)(2-(((3R,5R)-2-oxo-5-(trifluoromethyl)piperidin-3-yl)methyl)-3-(tetrahydro-2H-pyran-4-yl)imidazo[1,2-b][1,2,4]triazin-6-yl)methyl)-1-ethyl-1H-1,2,4-triazole-5-carboxamide]",100 to 1000 nM,< 100 nM
CCn1nccc1C(=O)N[C@H](c1cn2nc(C[C@H]3CC4(CC4)CNC3=O)c(C3CCOCC3)nc2n1)C1CCC(F)(F)CC1 [Compound 423],> 1000 nM,< 100 nM
CCn1nccc1C(=O)N[C@H](c1cn2nc(C[C@@H]3CC4(CC4)CNC3=O)c(C3CCOCC3)nc2n1)C1CCC(F)(F)CC1 [Compound 424],100 to 1000 nM,< 100 nM
CCn1nccc1C(=O)N[C@H](c1cn2nc(C[C@@H]3C(=O)NC4CC3C4)c(C3CCOCC3)nc2n1)C1CCC(F)(F)CC1 [Compound 425],> 1000 nM,100 to 1000 nM
CCn1nccc1C(=O)N[C@H](c1cn2nc(C[C@H]3C(=O)NC4CC3C4)c(C3CCOCC3)nc2n1)C1CCC(F)(F)CC1 [Compound 426],> 1000 nM,< 100 nM
CCn1nccc1C(=O)N[C@H](c1cn2nc(C[C@@H]3C(=O)NC[C@@H]4C[C@@H]43)c(C3CCOCC3)nc2n1)C1CCC(F)(F)CC1 [Compound 427],> 1000 nM,100 to 1000 nM
CCn1nccc1C(=O)N[C@H](c1cn2nc(C[C@@H]3C(=O)NC[C@H]4C[C@H]43)c(C3CCOCC3)nc2n1)C1CCC(F)(F)CC1 [Compound 428],> 1000 nM,< 100 nM

# Continued, values first:
IC50 [1],IC50 [2],SMILES
> 1000 nM,100 to 1000 nM,"CCn1nccc1C(=O)N[C@H](c1cn2nc(C[C@H]3C[C@@H](C(F)(F)F)CNC3=O)c(CN3CCN(C)CC3)nc2n1)C1CCC(F)(F)CC1 [Compound 412, N—((S)-(4,4-difluorocyclohexyl)(3-((4-methylpiperazin-1-yl)methyl)-2-(((3R,5R)-2-oxo-5-(trifluoromethyl)piperidin-3-yl)methyl)imidazo[1,2-b][1,2,4]triazin-6-yl)methyl)-1-ethyl-1H-pyrazole-5-carboxamide]"
> 1000 nM,100 to 1000 nM,CCn1nccc1C(=O)N[C@H](c1cn2nc(C[C@H]3C[C@@H](C(F)(F)F)CNC3=O)c(C3CCCN3C)nc2n1)C1CCC(F)(F)CC1 (stereo partly shown) [Compound 413]
> 1000 nM,< 100 nM,"CC(C)(C)n1nccc1C(=O)N[C@H](c1cn2nc(C[C@H]3C[C@@H](C(F)(F)F)CNC3=O)c(C3CCOCC3)nc2n1)C1CCC(F)(F)CC1 [Compound 414, 1-(tert-butyl)-N—((S)-(4,4-difluorocyclohexyl)(2-(((3R,5R)-2-oxo-5-(trifluoromethyl)piperidin-3-yl)methyl)-3-(tetrahydro-2H-pyran-4-yl)imidazo[1,2-b][1,2,4]triazin-6-yl)methyl)-1H-pyrazole-5-carboxamide]"
> 1000 nM,100 to 1000 nM,CCn1cnnc1C(=O)N[C@H](c1cn2nc(C[C@H]3C[C@@H](C(F)(F)F)CNC3=O)c(C3CCOCC3)nc2n1)C1CCC(F)(F)CC1 [Compound 415]
100 to 1000 nM,< 100 nM,"CCn1nccc1C(=O)N[C@H](c1cn2nc(C[C@H]3C[C@@H](C(F)(F)F)CNC3=O)c(N3CCOC(COC)C3)nc2n1)C1CCC(F)(F)CC1 (stereo partly drawn) [Compound 416, N-((1S)-(4,4-difluorocyclohexyl)(3-(2-(methoxymethyl)morpholino)-2-(((3R,5R)-2-oxo-5-(trifluoromethyl)piperidin-3-yl)methyl)imidazo[1,2-b][1,2,4]triazin-6-yl)methyl)-1-ethyl-1H-pyrazole-5-carboxamide]"
> 1000 nM,< 100 nM,"CCn1nccc1C(=O)N[C@H](c1cn2nc(C[C@H]3C[C@@H](C(F)(F)F)CNC3=O)c(OC(C)C)nc2n1)C1CCC(F)(F)CC1 [Compound 417, N—((S)-(4,4-difluorocyclohexyl)(3-isopropoxy-2-(((3R,5R)-2-oxo-5-(trifluoromethyl)piperidin-3-yl)methyl)imidazo[1,2-b][1,2,4]triazin-6-yl)methyl)-1-ethyl-1H-pyrazole-5-carboxamide]"
> 1000 nM,< 100 nM,"CCn1ccc(C(=O)N[C@H](c2cn3nc(C[C@H]4C[C@@H](C(F)(F)F)CNC4=O)c(C4CCOCC4)nc3n2)C2CCC(F)(F)CC2)n1 [Compound 418, N—((S)-(4,4-difluorocyclohexyl)(2-(((3R,5R)-2-oxo-5-(trifluoromethyl)piperidin-3-yl)methyl)-3-(tetrahydro-2H-pyran-4-yl)imidazo[1,2-b][1,2,4]triazin-6-yl)methyl)-1-ethyl-1H-pyrazole-3-carboxamide]"
100 to 1000 nM,< 100 nM,O=C(N[C@H](c1cn2nc(C[C@H]3C[C@@H](C(F)(F)F)CNC3=O)c(C3CCOCC3)nc2n1)C1CCC(F)(F)CC1)c1ccnn1C1CC1 [Compound 419]
100 to 1000 nM,< 100 nM,"CCn1nccc1C(=O)N[C@H](c1cn2nc(C[C@H]3C[C@@H](C(F)(F)F)CNC3=O)c(N3C[C@H](C)O[C@@H](C)C3)nc2n1)C1CCC(F)(F)CC1 [Compound 420, N—((S)-(4,4-difluorocyclohexyl)(3-((2S,6S)-2,6-dimethylmorpholino)-2-(((3R,5R)-2-oxo-5-(trifluoromethyl)piperidin-3-yl)methyl)imidazo[1,2-b][1,2,4]triazin-6-yl)methyl)-1-ethyl-1H-pyrazole-5-carboxamide]"
